In US20250213573A1, “PHARMACEUTICAL COMPOSITION COMPRISING JAK INHIBITOR, PREPARATION METHOD THEREFOR AND USE THEREOF” (BEIJING MAXINOVEL PHARMACEUTICALS CO., LTD., priority 2022, published 2025):

Assay: Saturation solubility test of the compound of formula I in different solvents
Assay type: physicochemical
Conditions: thermodynamic from solid
From the text: Example 1: Saturation Solubility Test of the Compound of Formula I in Different Solvents

Compound `CCS(=O)(=O)N1CC(C(CC#N)n2cc(-c3nc(Nc4cnn(C)c4)nc4ccsc34)cn2)C1` (centres unmarked) [Compound of formula I] has a solubility (aqueous buffer, saturation solubility in pH 2 phosphate buffer) of 16 µg/mL, a solubility (aqueous buffer, saturation solubility in pH 4 phosphate buffer) of 1 µg/mL and a solubility (aqueous buffer, saturation solubility in pH 6 phosphate buffer) of 1 µg/mL. It also gave a solubility (aqueous buffer, saturation solubility in pH 8 phosphate buffer) of 1 µg/mL, a solubility (oil or lipid, saturation solubility in Corn oil) of 14 µg/mL and a solubility (oil or lipid, saturation solubility in Medium chain triglycerides) of 75 µg/mL. It also gave a solubility (oil or lipid, saturation solubility in Oleic acid) of 230 µg/mL, a solubility (oil or lipid, saturation solubility in Olive oil) of 14 µg/mL and a solubility (oil or lipid, saturation solubility in Soybean oil) of 18 µg/mL. It also gave a solubility (organic solvent or mixture, saturation solubility in Anhydrous ethanol) of 240 µg/mL, a solubility (organic solvent or mixture, saturation solubility in Diethylene glycol monoethyl ether) of 14000 µg/mL and a solubility (organic solvent or mixture, saturation solubility in Dimethyl sulfoxide) of 302000 µg/mL. For the same compound, the solubility (organic solvent or mixture, saturation solubility in Ethyl acetate) was 2340 µg/mL, the solubility (organic solvent or mixture, saturation solubility in Glycerol) was 70 µg/mL and the solubility (organic solvent or mixture, saturation solubility in Polyethylene glycol 400) was 26600 µg/mL. The solubility (organic solvent or mixture, saturation solubility in Propylene glycol) was 990 µg/mL and the solubility (saturation solubility in Pure water) was 1 µg/mL.
